Assay results published in ChEMBL document CHEMBL1127397, “The synthesis of nucleoside 5'-O-(1,1-dithiotriphosphates)” (J Med Chem, 1994).
Converted amounts (≈) assume the structure as drawn.

Legend:
[1] = test system: CCRF-CEM; assay: Tested for the ability to inhibit HIV-1 (IIIB) replication in CEM cells; assay type: functional, cell-based; settings: Homo sapiens
[2] = test system: CCRF-CEM; assay: Tested for the ability to inhibit HIV-2 (ROD) replication in CEM cells; assay type: functional, cell-based; settings: Homo sapiens
[3] = biological target: Human immunodeficiency virus type 1 reverse transcriptase (Human immunodeficiency virus 1, UniProt Q72547); assay: Tested against HIV-1 reverse transcriptase (HIV-1 RT) with poly(rA)/(dT)12-18 as template and [methyl-3H]-dTTP as competing substrate; assay type: functional

Nc1nc(O)c2ncn([C@H]3CC(O)C(COP(=S)(S)OP(=O)(O)OP(=O)(O)O)O3)c2n1 (stereo not given in full)
EC50 [1]: > 50 µg/mL | EC50 [2]: > 50 µg/mL

Nc1ncnc2c1ncn2[C@H]1CC(O)C(COP(=S)(S)OP(=O)(O)OP(=O)(O)O)O1 (stereo not given in full)
EC50 [1]: 43 µg/mL (≈ 82.2 µM) | EC50 [2]: 50 µg/mL (≈ 95.5 µM)

Nc1ccn([C@H]2CC(O)C(COP(=S)(S)OP(=O)(O)OP(=O)(O)O)O2)c(=O)n1 (stereo not given in full)
EC50 [1]: 97 µg/mL (≈ 194 µM) | EC50 [2]: 123 µg/mL (≈ 246 µM)

Cc1cn([C@H]2CC(O)C(COP(=S)(S)OP(=O)(O)OP(=O)(O)O)O2)c(=O)[nH]c1=O (stereo not given in full)
EC50 [1]: > 50 µg/mL | EC50 [2]: > 50 µg/mL

Cc1cn([C@H]2CC(N=[N+]=[N-])C(COP(=S)(S)OP(=O)(O)OP(=O)(O)O)O2)c(=O)[nH]c1=O (stereo not given in full)
EC50 [1]: 0.5 µg/mL (≈ 0.927 µM) | IC50 [3]: 940 nM

Nc1nc(O)c2ncn(C3O[C@H](COP(=S)(S)OP(=O)(O)OP(=O)(O)O)[C@@H](O)[C@H]3O)c2n1 (stereo not given in full)
EC50 [1]: > 50 µg/mL | EC50 [2]: > 50 µg/mL

Nc1ncnc2c1ncn2C1O[C@H](COP(=S)(S)OP(=O)(O)OP(=O)(O)O)[C@@H](O)[C@H]1O (stereo not given in full)
EC50 [1]: 42 µg/mL (≈ 77.9 µM) | EC50 [2]: 116 µg/mL (≈ 215 µM)

Cc1cn([C@H]2C[C@H](N=[N+]=[N-])[C@@H](CO[P@](=O)(O)O[P@](=O)(O)OP(=O)(O)O)O2)c(=O)[nH]c1=O [ZIDOVUDINE TRIPHOSPHATE]
IC50 [3]: 3 nM
